Here are results for 17 compounds from US11708360B2, “N-substituted-dioxocyclobutenylamino-3-hydroxy-picolinamides useful as CCR6 inhibitors” (Pfizer Inc., priority 2018, dated 2023).

The target in assay [1] is T1, CXCR2 (Homo sapiens, UniProt P25025).
T1 sequence (P25025 1-360): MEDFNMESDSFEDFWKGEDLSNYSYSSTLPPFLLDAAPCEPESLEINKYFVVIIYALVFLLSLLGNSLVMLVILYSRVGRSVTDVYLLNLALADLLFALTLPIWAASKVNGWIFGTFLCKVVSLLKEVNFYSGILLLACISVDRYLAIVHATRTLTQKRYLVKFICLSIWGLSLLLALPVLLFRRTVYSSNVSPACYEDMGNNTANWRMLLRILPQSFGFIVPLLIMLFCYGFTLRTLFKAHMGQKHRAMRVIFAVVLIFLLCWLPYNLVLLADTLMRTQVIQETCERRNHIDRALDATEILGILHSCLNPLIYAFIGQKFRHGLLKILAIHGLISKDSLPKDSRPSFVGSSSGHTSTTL
Put plainly: Human Neutrophil Chemotaxis Assay. Also noted: Human neutrophils were purified from freshly drawn human whole blood; endogenous in cells; host or cells: primary human neutrophils from fresh whole blood. It counts as cell-based. The procedure: After 30 min, the labeled neutrophils were washed twice in chemotaxis buffer, resuspended as before and used immediately. For the assay, test compounds were tested in a dose-response format to determine IC50. Labeled neutrophils (50 μL) were pre-incubated with diluted test compound (50 μL) for 30 min in a 96-well plate (Greiner). Next, 100 μL of diluted compound was mixed with 100 μL of GROα (Peprotech #300-11, 2 nM) in the bottom portion of the chemotaxis chamber. The top portion (insert) of the chemotaxis system containing the FluoroBlok porous membrane was then assembled together. 50 μL of the pre-incubated neutrophils were added to the FluoroBlok insert (top portion) and chemotaxis measured by the neutrophils ability to migrate through the membrane towards the specific CXCR2 ligand, GROα.
IC50 values for compounds of the present invention (Table 12) were determined by the non-linear regression analysis of dose response curves.

In assay [2] the target is T2, CCR6 (Homo sapiens, UniProt P51684).
T2 construct: Human CD4+CCR6+CXCR3-T cells were isolated from leukopak from healthy donors; endogenous in cells
T2 sequence (P51684 1-374): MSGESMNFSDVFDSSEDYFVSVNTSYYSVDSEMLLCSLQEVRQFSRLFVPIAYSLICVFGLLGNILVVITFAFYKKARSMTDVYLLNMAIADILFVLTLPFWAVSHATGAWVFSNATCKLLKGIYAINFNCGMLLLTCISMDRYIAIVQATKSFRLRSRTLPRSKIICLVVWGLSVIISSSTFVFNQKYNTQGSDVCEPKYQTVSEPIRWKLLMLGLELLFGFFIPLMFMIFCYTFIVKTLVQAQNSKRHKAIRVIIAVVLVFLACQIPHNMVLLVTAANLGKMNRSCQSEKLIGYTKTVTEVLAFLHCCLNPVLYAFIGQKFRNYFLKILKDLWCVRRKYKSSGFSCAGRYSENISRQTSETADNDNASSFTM
Put plainly: CCR6+ T Cell Chemotaxis Assay. It counts as cell-based. The settings on record: for T Cell Chemotaxis Selectivity: Table 13, T cell chemotaxis compared to neutrophil chemotaxis. The text has this:
Human CD4+CCR6+CXCR3-T cells were isolated from leukopak from healthy donors using EasySep™ Human Th17 Cell Enrichment Kit. […] Day 4 post activation, Dynabeads were removed from the culture. The activated T cells were maintained at 1-2×10^6 cells/mL for 15 days by feeding fresh growth media when needed.
For IC50 determination, the top and bottom of the chemotaxis chamber contained the same concentration of compound. DMSO was kept constant at 0.1% (v/v) in all wells. The final concentration of CCL20 (Peprotech 300-29A) in the bottom chamber is 0.5 nM. The fully assembled chemotaxis plate was placed in a cell culture incubator at 37° C., 5% CO2 for 1 h. After incubation, the top filter was removed, followed by a quick freeze of the bottom chamber at −80° C. for 1 h. The migrated cells in the bottom chamber were stained with CyQUANT dye (Life Technologies, C7026) for cell number determination.
IC50 values for compounds of the present invention (Table 11) were determined by the non-linear regression analysis of dose response curves.

[3] abbreviates: Table 12, human neutrophils migrating towards the CXCR2 ligand GROα, read-out: IC50.
[4] abbreviates: Table 11, human CD4+CCR6+CXCR3- T cells, CCL20 0.5 nM in bottom chamber, 1 h at 37° C., read-out: IC50.
[5] abbreviates: NS = not selective for T cell chemotaxis compared to neutrophil chemotaxis.
Setting [6] is: Table 15, WO 2010/131145 comparator compounds, read-out: IC50 (nM) CXCR2 Neutrophil, GROα Chemotaxis.

Where two headings read alike, the source gives them in different places.

Regarding `Cc1cn(C)nc1[C@H](Nc1c(Nc2ccnc(C(=O)N(C)C(C)C)c2O)c(=O)c1=O)C1(C)CCCC1` [Example 3, (R)-4-((2-(((1,4-Dimethyl-1H-pyrazol-3-yl)(1-methylcyclopentyl)methyl)amino)-3,4-dioxocyclobut-1-en-1-yl)amino)-3-hydroxy-N-isopropyl-N-methylpicolinamide], the IC50 (usually the concentration that gives 50% inhibition) stood at 1530 nM in assay [1] (setting [3]) and 2.3 nM in assay [2] (setting [4]). Further, the “T Cell Chemotaxis Selectivity” value in assay [2] (setting [5]) is recorded as 665.

With `[2H]C([2H])([2H])c1cn(C)nc1[C@H](Nc1c(Nc2ccnc(C(=O)N(C)C)c2O)c(=O)c1=O)C1(C)CCCC1` (single isomer, unassigned) [Example 39], the IC50 in assay [1] (setting [3]) worked out at 502 nM; in assay [2] (setting [4]) it was 6.5 nM.

In the case of `CCN(C)C(=O)c1nccc(Nc2c(N[C@@H](c3nn(C)cc3C)C3(C)CCCC3)c(=O)c2=O)c1O` [Example 4, (R)-4-((2-(((1,4-Dimethyl-1H-pyrazol-3-yl)(1-methylcyclopentyl)methyl)amino)-3,4-dioxocyclobut-1-en-1-yl)amino)-N-ethyl-3-hydroxy-N-methylpicolinamide], the IC50 was found to be 886 nM in assay [1] (setting [3]) and 6.3 nM in assay [2] (setting [4]). Besides, in assay [2] (setting [5]), the “T Cell Chemotaxis Selectivity” value is 140.

Regarding `CCN(C)C(=O)c1nccc(Nc2c(N[C@H](c3nn(C)cc3C)C3(C)CCCC3)c(=O)c2=O)c1O` [Example 5, (S)-4-((2-(((1,4-Dimethyl-1H-pyrazol-3-yl)(1-methylcyclopentyl)methyl)amino)-3,4-dioxocyclobut-1-en-1-yl)amino)-N-ethyl-3-hydroxy-N-methylpicolinamide], in assay [2] (setting [4]), the IC50 is 922 nM.

Regarding `CN(C)C(=O)c1nccc(Nc2c(N[C@@H](c3nn(C)cc3Cl)C3(C)CCCC3)c(=O)c2=O)c1O` [Example 8, (R)-4-((2-(((4-Chloro-1-methyl-1H-pyrazol-3-yl)(1-methylcyclopentyl)methyl)amino)-3,4-dioxocyclobut-1-en-1-yl)amino)-3-hydroxy-N,N-dimethylpicolinamide], the IC50 was determined as 103 nM in assay [1] (setting [3]) and 3 nM in assay [2] (setting [4]). In assay [2] (setting [5]), the “T Cell Chemotaxis Selectivity” value amounted to 34.

As for `Cc1nc([C@H](Nc2c(Nc3ccnc(C(=O)N(C)C)c3O)c(=O)c2=O)C(C)(C)C)c(C)s1` [Example 25, (R)-4-((2-((1-(2,5-Dimethylthiazol-4-yl)-2,2-dimethylpropyl)-amino)-3,4-dioxocyclobut-1-en-1-yl)amino)-3-hydroxy-N,N-dimethylpicolinamide], the results for the IC50 in assay [1] (setting [3]) and in assay [2] (setting [4]) were 355 nM and 1.2 nM, respectively. In addition, in assay [2] (setting [5]), the “T Cell Chemotaxis Selectivity” value came to 296.

Take `Cc1ccc([C@H](Nc2c(Nc3cccc(C(=O)N(C)C)c3O)c(=O)c2=O)C2(C)COC2)o1` [Example 50, reference compound]: the IC50 in assay [1] (Table 17, WO 2013/061005 comparator compounds, read-out: IC50 (nM) CXCR2 Neutrophil, GROα Chemotaxis) was 121 nM.

Consider `CC[C@@H](Nc1c(Nc2ccnc(C(=O)N(C)C)c2O)c(=O)c1=O)c1cccc(C2CC2)c1` [Example 120, reference compound], for which the IC50 was 5.7 nM in assay [1] (setting [6]) and 388 nM in assay [2] (Table 15, WO 2010/131145 comparator compounds, read-out: IC50 (nM) CCR6 T cell, CCL20 Chemotaxis).

In the case of `Cc1cn(C)nc1[C@H](Nc1c(Nc2ccnc(C(=O)N(C)C)c2O)c(=O)c1=O)C(C)(C)C` [Example 22, (R)-4-((2-((1-(1,4-Dimethyl-1H-pyrazol-3-yl)-2,2-dimethylpropyl)amino)-3,4-dioxocyclobut-1-en-1-yl)amino)-3-hydroxy-N,N-dimethylpicolinamide], the IC50 in assay [1] (setting [3]) is 141 nM; in assay [2] (setting [4]) it was 7.4 nM. For the same compound, the “T Cell Chemotaxis Selectivity” value in assay [2] (setting [5]) was 19.

Consider `COc1sc(C)nc1[C@H](Nc1c(Nc2ccnc(C(=O)N(C)C)c2O)c(=O)c1=O)C1(C)CCCC1` [Example 33, (R)-3-Hydroxy-4-((2-(((5-methoxy-2-methylthiazol-4-yl)(1-methylcyclopentyl)methyl)amino)-3,4-dioxocyclobut-1-en-1-yl)amino)-N,N-dimethylpicolinamide], for which the results for the IC50 in assay [1] (setting [3]) and in assay [2] (setting [4]) were 69.9 nM and 4.4 nM, respectively. In assay [2] (setting [5]), the “T Cell Chemotaxis Selectivity” value is 16.

On to `Cc1cn(C)nc1[C@H](Nc1c(Nc2ccnc(C(=O)N3CCOCC3)c2O)c(=O)c1=O)C1(C)CCCC1` [Example 6, (R)-3-(((1,4-dimethyl-1H-pyrazol-3-yl)(1-methylcyclopentyl)methyl)amino)-4-((3-hydroxy-2-(morpholine-4-carbonyl)pyridin-4-yl)amino)cyclobut-3-ene-1,2-dione], for which the IC50 in assay [1] (setting [3]) came out at 586 nM; in assay [2] (setting [4]) it was 11.6 nM. In assay [2] (setting [5]), the “T Cell Chemotaxis Selectivity” value came to 51.

Take `CCc1cn(C)nc1[C@H](Nc1c(Nc2ccnc(C(=O)N(C)C)c2O)c(=O)c1=O)[C@]1(C)CC(F)(F)CO1` [Example 37, 4-((2-(((S)-((S)-4,4-Difluoro-2-methyltetrahydrofuran-2-yl) (4-ethyl-1-methyl-1H-pyrazol-3-yl)methyl)amino)-3,4-dioxocyclobut-1-en-1-yl)amino)-3-hydroxy-N,N-dimethylpicolinamide]: the results for the IC50 in assay [1] (setting [3]) and in assay [2] (setting [4]) were 3630 nM and 5.2 nM, respectively. For the same compound, the “T Cell Chemotaxis Selectivity” value in assay [2] (setting [5]) is given as 698.

Consider `CN(C)C(=O)c1nccc(Nc2c(N[C@@H](c3nn(C)cc3OC(F)F)C3(C)CCCC3)c(=O)c2=O)c1O` [Example 15, (R)-4-((2-(((4-(Difluoromethoxy)-1-methyl-1H-pyrazol-3-yl)(1-methylcyclopentyl)methyl)amino)-3,4-dioxocyclobut-1-en-1-yl)amino)-3-hydroxy-N,N-dimethylpicolinamide], for which the IC50 in assay [1] (setting [3]) came out at 735 nM; in assay [2] (setting [4]) it was 10.6 nM. The “T Cell Chemotaxis Selectivity” value in assay [2] (setting [5]) is 69.

Regarding `CCc1cn(C)nc1[C@H](Nc1c(Nc2ccnc(C(=O)N(C)C)c2O)c(=O)c1=O)C1(C)CCCC1` [Example 18, (R)-4-((2-(((4-Ethyl-1-methyl-1H-pyrazol-3-yl)(1-methylcyclopentyl)methyl)amino)-3,4-dioxocyclobut-1-en-1-yl)amino)-3-hydroxy-N,N-dimethylpicolinamide], the IC50 turned out to be 1010 nM in assay [1] (setting [3]) and 3.3 nM in assay [2] (setting [4]). For the same compound, the “T Cell Chemotaxis Selectivity” value in assay [2] (setting [5]) is reported as 306.

On to `CN(C)C(=O)c1nccc(Nc2c(NC(c3ccn(C)n3)C3(C)CCCC3)c(=O)c2=O)c1O` (stereo not shown) [drawing 179 (R = H), reference compound], for which the half-maximal inhibitory concentration (IC50) in assay [1] (Table 14, R = H, read-out: R = H, IC50 (nM) CXCR2 Neutrophil, GROα Chemotaxis) was 42.1 nM; in assay [2] (Table 14, R = H, read-out: R = H, IC50 (nM) CCR6 T cell, CCL20 Chemotaxis) it was 19.2 nM. For the same compound, the “R = H, T Cell Chemotaxis Selectivity” value in assay [2] (Table 14, R = H, NS = not selective for T cell chemotaxis compared to neutrophil chemotaxis) stood at 2.2.

Consider `COc1cn(C)nc1[C@H](Nc1c(Nc2ccnc(C(=O)N(C)C)c2O)c(=O)c1=O)C(C)(C)C` [Example 13, (R)-3-Hydroxy-4-((2-((1-(4-methoxy-1-methyl-1H-pyrazol-3-yl)-2,2-dimethylpropyl)amino)-3,4-dioxocyclobut-1-en-1-yl)amino)-N,N-dimethylpicolinamide], for which the IC50 amounted to 328 nM in assay [1] (setting [3]) and 5.4 nM in assay [2] (setting [4]). For the same compound, the “T Cell Chemotaxis Selectivity” value in assay [2] (setting [5]) was determined as 60.

In the case of `CC[C@@H](Nc1c(Nc2ccnc(C(=O)N(C)C)c2O)c(=O)c1=O)c1cc(C(C)C)co1` [Example 112, reference compound], the IC50 in assay [1] (setting [6]) amounted to 23.2 nM.
